Data from article PMC10747736, “In Vitro Activities of Dithiocarbamate Derivatives against Echinococcus multilocularis Metacestode Vesicles” (Tropical Medicine and Infectious Disease, 2023).

Tested on: E. multilocularis metacestode vesicles
Assay: PGI assay (damage marker release) with metacestode vesicles
Assay type: cell-based, Echinococcus multilocularis
Set-up: key: Active: Compounds were considered active when they reached 20% of PGI release relative to Triton X-100; Not active: Compounds were considered active when they reached 20% of PGI release relative to Triton X-100
Details: overview screen at 10 µM, five days, 20% cut-off relative to Triton X-100
Protocol: In order to screen disulfiram and dithiocarbamate derivatives as potential new drug candidates, we used an in vitro screening cascade, in which the compounds were first screened against E. multilocularis metacestode vesicles via the phosphoglucose isomerase (PGI) assay, in which metacestode vesicle damage is assessed by the measurement of damage marker (PGI) release (Figure 1, see Section 2.6). […] Subsequently, compounds were assessed in concentration series on E. multilocularis metacestode vesicles via the PGI assay and on GL cell cultures via the CellTiter-Glo assay (see Section 2.9). The testing on mammalian cells as well as metacestode vesicles and GL cell cultures allowed the identification of a potential therapeutic window in vitro.
PGI assays were conducted at the University of Bern as described previously. In short, two-to-three-month-old metacestode vesicles of two to four mm in diameter were purified using 2% sucrose followed by several washing steps in PBS. Purified metacestode vesicles were mixed with two volumes of DMEM without phenol red containing penicillin (100 U/mL) and streptomycin (100 µg/mL). […] Samples were measured on an EnSpire multilabel reader (Perkin Elmer, Waltham, MA, USA). […] Samples were measured on a HIDEX Sense microplate reader (Hidex, Turku, Finland). […]

CCN(CC)C(=S)SSC(=S)N(CC)CC [Disulfiram]
PGI assay (active / not active): Not active
PGI assay (active / not active) (listed as disulfiram): showed no effect
